Assay results as given in patent publication US12448433B2, “Human ApoB100 epitopes, methods and uses for modulating inflammatory responses, and treating adverse cardiovascular events, disease and atherosclerosis” (LA JOLLA INSTITUTE FOR ALLERGY AND IMMUNOLOGY, priority 2015, dated 2025).

Legend:
DPB1*03:01 = assay: Peptide binding to HLA-DP allele, competition assay; set-up: species or system human
Text: (§1) Peptide binding to MHC-II requires anchor residues in certain positions and thus can be predicted using computer algorithms. Affinity can be measured experimentally using a competition assay (1). Both are excellent screening tools. However, affinity must be measured separately for each MHC-II allele. Humans express molecules encoded in four different MHC-II loci, denominated HLA-DRB1, DRB3/4/5, DP and DQ. Allelic variation is large, and most people are heterozygous at each locus, thus expressing up to 8 relevant MHC-II alleles. CD4 T cell responses strictly require that the antigenic peptide binds to the relevant MHC-II.
(§2) To identify peptides that could potentially be used in human patients, 30 peptides were screened for binding to 26 HLA alleles by competition assay.

DPB1*14:01 = assay: as above; set-up: species or system human
Text: as §1, §2

DRB5*01:01 = DRB5*01:01 (Homo sapiens, UniProt P01903+Q30154); assay: Peptide binding to HLA-DR allele, competition assay
Text: as §1, §2

DRB1*15:01 = DRB1*15:01 (Homo sapiens, UniProt P01903+P01911); assay: as above
Text: as §1, §2

DQB1*06:02 = assay: Peptide binding to HLA-DQ allele, competition assay; set-up: species or system human
Text: as §1, §2

DPB1*05:01 = assay: Peptide binding to HLA-DP allele, competition assay; set-up: species or system human
Text: as §1, §2

DRB1*09:01 = DRB1*09:01 (Homo sapiens, UniProt P01903+P01911, A100R/A103E/D57H/D86V/F55Y/F60I/F76Y/I96F/K127E/L162R/M171V/P40D/Q125H/Q99R/R33Q/R42F/S133A/S66N/T210M/V115G/W38K/Y107V/Y59G/Y89S); assay: Peptide binding to HLA-DR allele, competition assay
Text: as §1, §2

HLA-DRB1*01:01 = HLA-DRB1*01:01 (Homo sapiens, UniProt P01903+P01911, A100R/D57E/F55L/F60I/F76Y/I96L/L162R/M171V/P40L/Q125E/R42F/V115G/Y59C); assay: as above
Text: as §1, §2

DRB1*11:01 = DRB1*11:01 (Homo sapiens, UniProt P01903+P01911, A100R/A169T/A87E/I96F/K41T/L162R/M171V/P40S/Q125H/Q178H/Q39Y/Q99D/R42S/S66Y/T262R/V115G/W38E); assay: as above
Text: as §1, §2

DRB1*13:02 = DRB1*13:02 (Homo sapiens, UniProt P01903+P01911, A100E/A169T/K41T/L162R/M171V/P40S/Q125H/Q178H/Q39Y/Q99D/R42S/S66N/T262R/V115G/W38E/Y61H); assay: as above
Text: as §1, §2

DQB1*05:01 = assay: Peptide binding to HLA-DQ allele, competition assay; set-up: species or system human
Text: as §1, §2

DPB1*02:01 = assay: Peptide binding to HLA-DP allele, competition assay; set-up: species or system human
Text: as §1, §2

DPB1*04:02 = assay: as above; set-up: species or system human
Text: as §1, §2

DRB1*04:05 = DRB1*04:05 (Homo sapiens, UniProt P01903+P01911, A100R/A169T/D86S/F76Y/I96L/K127E/L162R/M171V/N62H/P40V/Q125Y/R42H/S133A/S149N/S66Y/V115G/V209L/W38E); assay: Peptide binding to HLA-DR allele, competition assay
Text: as §1, §2

DPB1*04:01 = target: T1, DPB1*04:01 (Homo sapiens, UniProt P04440); assay: Peptide binding to HLA-DP allele, competition assay
T1 sequence (P04440 30-258): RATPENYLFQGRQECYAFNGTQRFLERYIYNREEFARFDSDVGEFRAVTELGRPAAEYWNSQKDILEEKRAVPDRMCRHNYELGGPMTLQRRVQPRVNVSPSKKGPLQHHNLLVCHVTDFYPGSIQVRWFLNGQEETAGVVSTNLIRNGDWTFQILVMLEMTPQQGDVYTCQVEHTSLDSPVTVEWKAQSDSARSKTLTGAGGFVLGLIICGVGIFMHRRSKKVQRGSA
T1 sequence (P20036 29-260 partner): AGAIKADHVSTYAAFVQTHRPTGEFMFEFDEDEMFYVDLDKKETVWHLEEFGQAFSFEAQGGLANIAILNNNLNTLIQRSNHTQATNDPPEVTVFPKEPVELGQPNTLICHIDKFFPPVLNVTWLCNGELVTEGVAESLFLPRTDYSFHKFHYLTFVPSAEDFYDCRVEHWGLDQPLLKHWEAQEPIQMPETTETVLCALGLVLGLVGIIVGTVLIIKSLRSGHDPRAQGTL
Text: as §1, §2

| IC50 (DPB1*03:01) [nM] | IC50 (DPB1*14:01) [nM] | IC50 (DRB5*01:01) [nM] | IC50 (DRB1*15:01) [nM] | IC50 (DQB1*06:02) [nM] | IC50 (DPB1*05:01) [nM] | IC50 (DRB1*09:01) [nM] | IC50 (HLA-DRB1*01:01) [nM] | IC50 (DRB1*11:01) [nM] | IC50 (DRB1*13:02) [nM] | IC50 (DQB1*05:01) [nM] | IC50 (DPB1*02:01) [nM] | IC50 (DPB1*04:02) [nM] | IC50 (DRB1*04:05) [nM] | IC50 (DPB1*04:01) [nM] | Structure (SMILES) |
| --- | --- | --- | --- | --- | --- | --- | --- | --- | --- | --- | --- | --- | --- | --- | --- |
| 90 | 132 | 18 | 1.1 | 66 | – | – | – | – | – | – | – | – | – | – | CC[C@H](C)[C@H](N)C(=O)N[C@@H](CCCCN)C(=O)N[C@@H](Cc1c[nH]cn1)C(=O)N[C@H](C(=O)N[C@@H](Cc1ccc(O)cc1)C(=O)N[C@@H](C)C(=O)N[C@H](C(=O)N[C@@H](CO)C(=O)N[C@@H](CO)C(=O)N[C@@H](C)C(=O)N[C@@H](C)C(=O)N[C@@H](CC(C)C)C(=O)N[C@@H](CO)C(=O)N[C@@H](C)C(=O)N[C@@H](CO)C(=O)O)[C@@H](C)CC)[C@@H](C)CC [Peptide 3563.0009] |
| – | 183 | – | – | 245 | 9.8 | 17 | 7.1 | 1200 | 1.1 | 2630 | – | – | – | – | CC(C)C[C@H](NC(=O)CNC(=O)[C@@H](N)CCCNC(=N)N)C(=O)N[C@@H](CCCCN)C(=O)N[C@@H](CC(C)C)C(=O)N[C@@H](C)C(=O)N[C@H](C(=O)N[C@@H](C)C(=O)N[C@@H](CC(C)C)C(=O)N[C@@H](CO)C(=O)N[C@@H](CC(C)C)C(=O)N[C@@H](CO)C(=O)N[C@@H](CC(N)=O)C(=O)N[C@@H](CCCCN)C(=O)N[C@@H](Cc1ccccc1)C(=O)O)[C@@H](C)O [Peptide 3563.0020] |
| – | 1780 | – | – | – | 369 | 46 | – | – | – | – | 200 | 93 | 18 | 16 | CC[C@H](C)[C@H](NC(=O)[C@H](C)NC(=O)[C@H](CCCCN)NC(=O)[C@H](Cc1ccccc1)NC(=O)[C@@H](NC(=O)[C@H](CCC(=O)O)NC(=O)[C@@H](N)CCC(N)=O)C(C)C)C(=O)N[C@@H](CCC(N)=O)C(=O)N[C@@H](CO)C(=O)N[C@@H](CC(C)C)C(=O)N[C@@H](CCCCN)C(=O)N[C@H](C(=O)N[C@H](C(=O)N[C@@H](CCC(=O)O)C(=O)N[C@H](C(=O)O)C(C)C)[C@@H](C)O)[C@@H](C)O [Peptide 3563.0024] |
